Test results as given in PMC10489073 (Molecules, 2023).

Assays:
[1] = target: T1, chymotrypsin-like (CT-L) activity of the 20S proteasome (Homo sapiens, UniProt P20618+P28074); assay: 20S proteasome inhibition assay (Proteasome-Glo Chymotrypsin-Like); format: biochemical; details: n ≥ 3, SD <20% of the mean, read-out: IC50 toward Chymotrypsin-like (CT-L)
T1 construct: purchased R&D systems, Minneapolis, MN, USA
Method: The 20S proteasome inhibition assay was performed using the Proteasome-Glo™ Chymotrypsin-Like Assay kit (Promega, Alexandria, NSW, Australia). Suc-LLVY-aminoluciferin is a substate that can be cleaved by the 20S proteasome, release the […] (aminoluciferin) and allow the luciferase reaction to produce light. Gradient concentration of tested compounds and the purified 20S proteasome enzyme (R&D systems, Minneapolis, MN, USA) were successively added into a transparent 96-well plate and mixed thoroughly. Then, 50 µL of a […] reagent was added. Gently mix contents with a plate shaker at 300 to 500 rpm for 30 s. Incubate at room temperature for an hour. The luminescence was recorded via the Tecan Spark multimode microplate.

P3x63Ag8.653 = assay: Cell proliferation analysis (MTT); format: cell-based, murine; details: Mus musculus, 48 h, read-out: Anti-proliferative activity IC50, P3x63Ag8.653
Method: (§1) All tumor cell lines in the current research were grown in a certain growth medium containing 10% FBS and 1% (v/v/v) penicillin–streptomycin–amphotericin at 37 °C in 5% CO2. Cells were seeded into 96-well plates at a density of 8 × 10^3 cells per well for tumor adherent cells and 2 × 10^4 cells per well for tumor-suspended cells in a final volume of 100 μL. After 12 h, 100 μL of various concentrations of compounds was added to each and incubated for 48 h. A 0.5% MTT solution was added per well before the intermixture was incubated for another 4 h, and formazan formed from MTT was extracted by adding […] of DMSO rocking for 15 min. Absorbance was measured at 570 nm using a Spark multimode microplate from Tecan. The IC50 values were calculated according to the inhibition ratios.

A2780 = assay: Cell proliferation analysis (MTT); format: cell-based; details: Homo sapiens, 48 h, read-out: Anti-proliferative activity IC50, A2780
Method: as §1

ARP-1 = assay: Cell proliferation analysis (MTT); format: cell-based; details: 48 h, read-out: Anti-proliferative activity IC50, ARP-1
Method: as §1

HCT116 = assay: Cell proliferation analysis (MTT); format: cell-based; details: Homo sapiens, HCT-116, 48 h, read-out: Anti-proliferative activity IC50, HCT116
Method: as §1

HEL = assay: Cell proliferation analysis (MTT); format: cell-based; details: Homo sapiens, 48 h, read-out: Anti-proliferative activity IC50, HEL
Method: as §1

HT-29 = assay: Cell proliferation analysis (MTT); format: cell-based; details: Homo sapiens, 48 h, read-out: Anti-proliferative activity IC50, HT-29
Method: as §1

Hela = assay: Cell proliferation analysis (MTT); format: cell-based; details: Homo sapiens, 48 h, read-out: Anti-proliferative activity IC50, Hela
Method: as §1

KG1 = assay: Cell proliferation analysis (MTT); format: cell-based; details: Homo sapiens, KG-1, 48 h, read-out: Anti-proliferative activity IC50, KG1
Method: as §1

MDA-MB-231 = assay: Cell proliferation analysis (MTT); format: cell-based; details: Homo sapiens, 48 h, read-out: Anti-proliferative activity IC50, MDA-MB-231
Method: as §1

MM.1S = assay: Cell proliferation analysis (MTT); format: cell-based; details: Homo sapiens, MM1.S, 48 h, read-out: Anti-proliferative activity IC50, MM.1S
Method: as §1

PC3 = assay: Cell proliferation analysis (MTT); format: cell-based; details: Homo sapiens, PC-3, 48 h, read-out: Anti-proliferative activity IC50, PC3
Method: as §1

RPMI-8266 = assay: Cell proliferation analysis (MTT); format: cell-based; details: RPMI8266, 48 h, read-out: Anti-proliferative activity IC50, RPMI-8266
Method: as §1

SP2 = assay: Cell proliferation analysis (MTT); format: cell-based; details: 48 h, read-out: Anti-proliferative activity IC50, SP2
Method: as §1

U251 = assay: Cell proliferation analysis (MTT); format: cell-based; details: Homo sapiens, U-251, 48 h, read-out: Anti-proliferative activity IC50, U251
Method: as §1

U266 = assay: Cell proliferation analysis (MTT); format: cell-based; details: Homo sapiens, U-266, 48 h, read-out: Anti-proliferative activity IC50, U266
Method: as §1

HEK293 = assay: Cell proliferation analysis (MTT), normal cells; format: cell-based; details: Homo sapiens, non-malignant cell line, 48 h, read-out: Anti-proliferative activity IC50, HEK293
Method: as §1

HL-7702 = assay: Cell proliferation analysis (MTT), normal cells; format: cell-based; details: Homo sapiens, L02, non-malignant cell line, 48 h, read-out: Anti-proliferative activity IC50, HL-7702
Method: as §1

[2] = tested on: subcutaneous P3x63Ag8.653 tumor; assay: In vivo P3x63Ag8.653 tumor transplant model; set-up: species or system mice; details: 0.05 mmol/kg oral, two weeks
Method: The animal experiments were conducted under the guidelines of the “Regulations for the Administration of Affairs Concerning Experimental Animals” (revised 2017, State Council No. 676). For the P3x63Ag8.653 tumor development, male mice were subcutaneously injected with 200 μL murine P3x63Ag8.653 cells with a density of 1 × 10^7/mL. On the eighth day after injection, the transplanted mice were randomized into treatment and control groups. The tested compounds were administrated orally at the prescribed dose biweekly for two weeks. After two weeks of administration, mice were executed, and the tumor tissues were dissected and weighed. T/C was calculated according to the following formula: T/C = the mean RTV of the treated group/the mean RTV of the control group, where RTV is the relative tumor volume = Vt/V0 (Vt, the tumor volume measured at the end of treatment; V0, the tumor volume measured at the beginning of treatment).

[3] = high concentrations up to 1 mM; cited from earlier work

With `CC(C)C[C@H](NC(=O)[C@@H](O)[C@H](N)Cc1ccccc1)C(=O)O` [Ubenimex] the IC50 [1] was > 10 µM, the IC50 (P3x63Ag8.653) was > 200 µM and the IC50 (A2780) was > 200 µM. For the same compound, the IC50 (ARP-1) was > 200 µM, the IC50 (HCT116) was > 200 µM and the IC50 (HEL) was > 200 µM. The IC50 (HT-29) was > 200 µM, the IC50 (Hela) was > 200 µM and the IC50 (KG1) was > 200 µM. For the same compound, the IC50 (MDA-MB-231) was > 200 µM, the IC50 (MM.1S) was > 200 µM and the IC50 (PC3) was > 200 µM. For the same compound, the IC50 (RPMI-8266) was > 200 µM, the IC50 (SP2) was > 200 µM and the IC50 (U251) was > 200 µM. The IC50 (U266) was > 200 µM, the IC50 (HEK293) was > 200 µM and the IC50 (HL-7702) was > 200 µM. The anti-tumor activity [2] was “moderate anti-tumor activity” and the anti-proliferation activity [3] was “not apparent”.
